Earlier results in patent US20050043329A1, “Crystalline forms of valacyclovir hydrochloride” (priority 2002, published 2005).

Tests used:
[1] = after oral administration in healthy adults
[2] = after oral administration

CC(C)[C@H](N)C(=O)OCCOCn1cnc2c(=O)[nH]c(N)nc21 [valacyclovir, 1-valine, 2-[(2-amino-1,6-dihydro-6-oxo-9H-purin-9-yl)methoxy]ethyl ester]
conversion to acyclovir [1]: converted rapidly and virtually completely | absorption from the gastrointestinal tract [2]: rapidly absorbed
